According to patent US11111245B2, “Derivatives of N-cycloalkyl/heterocycloalkyl-4-(imidazo[1,2-a]pyridine)pyrimidin-2-amine as therapeutic agents” (Aucentra Therapeutics Pty Ltd, priority 2017, dated 2021):
Read-outs that look alike come from different tables or passages of the source.

Key:
CDK6/D3 = CDK6/D3 (Homo sapiens, UniProt Q00534); assay: ADP Glo Kinase assay CDK6/D3; assay type: biochemical; conditions: CDK6D3; for remaining activity at 10 µM: compound at 10 μM, read-out: residual activity (%) at 10 μM CDK6D3; for Ki: read-out: CDK inhibition, Ki (μM) CDK6D3
Experimental: Eurofins Pharma Discovery or Reaction Biology Corporation Kinase Profiler services were used to measure inhibition of CDKs and other kinases by radiometric assay. Inhibition of CDK4/D1, CDK6/D3 and CDK9/T1 were also determined in-house using ADP Glo Kinase assays (Promega Corporation, Madison, USA). Briefly, the kinase reaction for CDK4/D1 and CDK6/D3 was performed with kinase reaction buffer ([…] Tris base pH 7.5, 20 mM MgCl2, 0.4 mM DTT), 0.1 mg/ml BSA and RB-CTF substrate (retinoblastoma protein 1 C-terminal fraction). For CDK9/CyclinT1, the kinase reaction was performed with standard assay buffer and Kinase Dilution Buffer and RBER-IRStide substrate. Serial dilutions of 1:3 were prepared for test compounds for 10 concentrations (from 10 μM to 0.5 nM). The kinase reactions were started by addition of ATP, incubated for 40 min at 37° C. and then stopped by adding 10 μL of ADP Glo reagent. After incubation at room temperature in the dark for 40 min, 20 μL of kinase detection reagent was added per well and incubated for 40 min. Luminescence was measured using an EnVision Multilabel plate reader (PerkinElmer, Buckinghamshire, UK). Positive and negative controls were performed in the presence and absence of CDK kinases, respectively. Half-maximal inhibition (IC50) values were calculated using a 4-parameter logistic non-linear regression model with Graphpad prism (Version 6.0). Apparent inhibition constants (Ki) values were calculated from Km (ATP) and IC50 values for the respective kinases.

CDKs and other kinases [1] = molecular target: T1, CDKs and other kinases (Homo sapiens, UniProt P50613); assay: Radiometric kinase assay (Eurofins Pharma Discovery or Reaction Biology Corporation Kinase Profiler); assay type: biochemical; conditions: for remaining activity at 10 µM: compound at 10 μM, read-out: residual activity (%) at 10 μM CDK7H
T1 construct: other: CDK7H; residual activity (%) at 10 μM CDK7H; compound at 10 μM
Summary of the method: (§1)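 Other CDKs and further kinases were profiled externally by radiometric assay. In-house ADP Glo assays covered CDK4/D1 and CDK6/D3 (RB-CTF substrate, pH 7.5 Tris buffer with MgCl2, DTT, BSA) and CDK9/T1 (RBER-IRStide substrate), 40 min at 37° C.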

CDKs and other kinases [2] = molecular target: T2, CDKs and other kinases (Homo sapiens, UniProt P24941); assay: as above; assay type: biochemical; conditions: CDK2A; for remaining activity at 10 µM: compound at 10 μM, read-out: residual activity (%) at 10 μM CDK2A; for Ki: read-out: CDK inhibition, Ki (μM) CDK2A
T2 construct: other: CDK2A; residual activity (%) at 10 μM CDK2A; compound at 10 μM
Summary of the method: as §1

CDKs and other kinases [3] = molecular target: T3, CDKs and other kinases (Homo sapiens, UniProt P06493); assay: as above; assay type: biochemical; conditions: CDK1B; for remaining activity at 10 µM: compound at 10 μM, read-out: residual activity (%) at 10 μM CDK1B; for Ki: read-out: CDK inhibition, Ki (μM) CDK1B
T3 construct: other: CDK1B; residual activity (%) at 10 μM CDK1B; compound at 10 μM
Summary of the method: as §1

CDK9/T1 = CDK9/T1 (Homo sapiens, UniProt P50750); assay: ADP Glo Kinase assay CDK9/T1; assay type: biochemical
Summary of the method: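 CDK4/D1 and CDK6/D3 were run in […] Tris pH 7.5, 20 mM MgCl2, 0.4 mM DTT, 0.1 mg/ml BSA with RB-CTF substrate; CDK9/T1 used RBER-IRStide. ATP-started reactions ran 40 min at 37° C, with ADP Glo luminescence read-out. IC50 came from 4-parameter fits; Ki from Km (ATP) and IC50.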

CDK4/D1 = CDK4/D1 (Homo sapiens, UniProt P11802); assay: ADP Glo Kinase assay CDK4/D1; assay type: biochemical; conditions: CDK4D1; for remaining activity at 10 µM: compound at 10 μM, read-out: residual activity (%) at 10 μM CDK4D1; for Ki: read-out: CDK inhibition, Ki (μM) CDK4D1
Summary of the method: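 In-house ADP-Glo assay: CDK4/D1 or CDK6/D3 with RB-CTF substrate in […] Tris pH 7.5, 20 mM MgCl2, 0.4 mM DTT, 0.1 mg/ml BSA; ATP-started, 40 min at 37° C.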

leukemia cell lines = assay: Resazurin cell viability assay on leukemia cell lines (72 h growth inhibition, GI50); assay type: cell-based; conditions: Homo sapiens, MV4-11 cells
Experimental: Compounds from Example 1 were subjected to a standard MTT (3-(4,5-dimethylthiazol-2-yl)-2,5-diphenyltetrazolium bromide) and resazurin assays on solid tumour cell lines and leukemia cell lines, respectively, as previously reported (Wang S et al., J Med Chem 47:1662-1675, 2004 and Diab S. et al. CheMedChem 9:962-972, 2014). Compound concentrations required to inhibit 50% of cell growth (GI50) were calculated using non-linear regression analysis.

[4] = CDK9T1, read-out: CDK inhibition, Ki (μM) CDK9T1
[5] = CDK7H, read-out: CDK inhibition, Ki (μM) CDK7H

T1 sequence (P50613 whole entry): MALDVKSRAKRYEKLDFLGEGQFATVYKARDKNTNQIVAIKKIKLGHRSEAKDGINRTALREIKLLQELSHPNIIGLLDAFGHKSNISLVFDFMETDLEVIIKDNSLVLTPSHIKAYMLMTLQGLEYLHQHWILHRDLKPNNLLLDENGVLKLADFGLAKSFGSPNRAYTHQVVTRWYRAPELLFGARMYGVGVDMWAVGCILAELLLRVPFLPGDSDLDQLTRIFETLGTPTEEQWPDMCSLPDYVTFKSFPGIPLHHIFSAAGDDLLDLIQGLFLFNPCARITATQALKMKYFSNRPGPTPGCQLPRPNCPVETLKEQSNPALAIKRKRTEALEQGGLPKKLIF
T3 sequence (P06493 whole entry): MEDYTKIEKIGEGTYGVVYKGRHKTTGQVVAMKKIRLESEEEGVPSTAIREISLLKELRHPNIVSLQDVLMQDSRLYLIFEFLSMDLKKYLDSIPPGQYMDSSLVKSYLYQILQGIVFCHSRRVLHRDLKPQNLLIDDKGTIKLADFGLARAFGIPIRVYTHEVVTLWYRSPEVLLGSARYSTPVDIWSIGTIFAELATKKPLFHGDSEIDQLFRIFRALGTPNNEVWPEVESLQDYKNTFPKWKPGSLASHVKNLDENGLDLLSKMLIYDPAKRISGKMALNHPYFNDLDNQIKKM
Chain of CDK4/D1 (P11802 whole entry): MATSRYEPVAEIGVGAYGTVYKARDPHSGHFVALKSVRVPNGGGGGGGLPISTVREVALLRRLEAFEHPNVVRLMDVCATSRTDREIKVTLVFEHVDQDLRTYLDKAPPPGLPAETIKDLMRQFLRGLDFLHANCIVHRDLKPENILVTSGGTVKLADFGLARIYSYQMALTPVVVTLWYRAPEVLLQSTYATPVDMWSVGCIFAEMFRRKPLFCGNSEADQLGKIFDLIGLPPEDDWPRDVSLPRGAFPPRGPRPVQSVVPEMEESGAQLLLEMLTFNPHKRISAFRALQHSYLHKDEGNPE
Chain of CDK4/D1 (P24385 whole entry partner): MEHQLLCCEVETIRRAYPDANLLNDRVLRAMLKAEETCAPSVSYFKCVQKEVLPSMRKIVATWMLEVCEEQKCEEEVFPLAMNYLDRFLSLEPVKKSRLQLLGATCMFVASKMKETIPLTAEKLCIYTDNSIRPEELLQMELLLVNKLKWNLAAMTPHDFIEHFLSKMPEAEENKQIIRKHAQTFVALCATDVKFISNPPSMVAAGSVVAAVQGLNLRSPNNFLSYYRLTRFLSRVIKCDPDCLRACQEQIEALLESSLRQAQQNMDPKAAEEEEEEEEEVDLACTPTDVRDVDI
Chain of CDK9/T1 (P50750 whole entry): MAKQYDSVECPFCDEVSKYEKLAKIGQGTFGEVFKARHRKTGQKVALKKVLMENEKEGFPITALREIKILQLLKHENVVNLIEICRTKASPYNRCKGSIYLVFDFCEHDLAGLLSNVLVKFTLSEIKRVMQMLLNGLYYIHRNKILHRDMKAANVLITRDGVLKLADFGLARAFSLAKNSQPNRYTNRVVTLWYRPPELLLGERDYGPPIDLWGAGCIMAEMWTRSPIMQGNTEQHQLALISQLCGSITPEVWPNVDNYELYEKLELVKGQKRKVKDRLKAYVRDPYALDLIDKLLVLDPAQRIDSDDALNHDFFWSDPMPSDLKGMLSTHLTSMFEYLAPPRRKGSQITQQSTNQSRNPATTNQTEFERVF
Chain of CDK9/T1 (O60563 whole entry partner): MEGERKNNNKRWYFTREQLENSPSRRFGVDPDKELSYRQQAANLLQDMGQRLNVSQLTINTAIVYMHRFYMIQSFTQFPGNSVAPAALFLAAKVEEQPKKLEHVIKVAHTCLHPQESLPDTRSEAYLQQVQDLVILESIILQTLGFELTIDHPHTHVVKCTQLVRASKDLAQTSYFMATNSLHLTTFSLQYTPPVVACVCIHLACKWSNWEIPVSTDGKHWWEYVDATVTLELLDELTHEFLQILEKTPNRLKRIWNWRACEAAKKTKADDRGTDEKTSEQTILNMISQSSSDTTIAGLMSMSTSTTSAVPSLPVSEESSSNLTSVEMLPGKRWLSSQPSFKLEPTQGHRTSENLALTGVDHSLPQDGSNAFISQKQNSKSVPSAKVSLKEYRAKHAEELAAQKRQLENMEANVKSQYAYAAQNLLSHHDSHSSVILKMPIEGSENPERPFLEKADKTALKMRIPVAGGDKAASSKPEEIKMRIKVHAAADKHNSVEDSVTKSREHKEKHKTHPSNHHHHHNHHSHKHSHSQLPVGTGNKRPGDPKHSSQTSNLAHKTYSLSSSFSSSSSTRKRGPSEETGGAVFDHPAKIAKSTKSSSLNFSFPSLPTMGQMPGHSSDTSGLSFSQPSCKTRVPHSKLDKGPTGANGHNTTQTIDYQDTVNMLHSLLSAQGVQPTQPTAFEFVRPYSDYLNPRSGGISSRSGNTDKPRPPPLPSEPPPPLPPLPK
Chain of CDK6/D3 (Q00534 whole entry): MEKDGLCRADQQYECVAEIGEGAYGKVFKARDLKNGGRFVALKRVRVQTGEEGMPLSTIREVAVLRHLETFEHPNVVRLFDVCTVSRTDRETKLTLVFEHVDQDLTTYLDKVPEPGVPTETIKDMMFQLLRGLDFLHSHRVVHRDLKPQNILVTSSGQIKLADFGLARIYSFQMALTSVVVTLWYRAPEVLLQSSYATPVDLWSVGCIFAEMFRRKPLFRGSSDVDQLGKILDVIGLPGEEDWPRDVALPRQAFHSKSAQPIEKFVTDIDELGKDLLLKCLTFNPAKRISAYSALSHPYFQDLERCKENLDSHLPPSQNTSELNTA
Chain of CDK6/D3 (P30281 whole entry partner): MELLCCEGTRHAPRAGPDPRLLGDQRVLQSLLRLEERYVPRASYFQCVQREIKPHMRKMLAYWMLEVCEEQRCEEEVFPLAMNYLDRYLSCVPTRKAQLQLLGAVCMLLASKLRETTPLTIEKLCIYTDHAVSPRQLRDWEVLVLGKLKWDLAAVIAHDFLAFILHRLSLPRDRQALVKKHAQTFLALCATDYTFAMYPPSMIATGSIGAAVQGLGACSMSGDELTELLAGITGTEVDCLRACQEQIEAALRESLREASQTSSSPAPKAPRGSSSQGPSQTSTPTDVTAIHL

Row | Compound | remaining activity at 10 µM (CDK6/D3) [%] | remaining activity at 10 µM (CDKs and other kinases [1]; CDK7H) [%] | remaining activity at 10 µM (CDKs and other kinases [2]) [%] | remaining activity at 10 µM (CDKs and other kinases [3]) [%] | Ki (CDK9/T1; [4]) [µM] | remaining activity at 10 µM (CDK4/D1) [%] | residual activity at 10 µM (CDK4/D1) [%] | Ki (CDKs and other kinases [1]; [5]) [µM] | Ki (CDKs and other kinases [2]) [µM] | Ki (CDKs and other kinases [3]) [µM] | Ki (CDK6/D3) [µM] | Ki (CDK4/D1) [µM] | Ki (CDKs and other kinases [1]) [µM] | Ki (CDK9/T1) [µM] | GI50 (leukemia cell lines) [µM]
1 | C[C@]12C[C@]3(C)C[C@](O)(C1)C[C@](Nc1ncc(F)c(-c4cnc5ccc(-c6ccccc6)cn45)n1)(C2)C3 [Compound 110, (1s,3r,5R,7S)-3-((5-Fluoro-4-(6-phenylimidazo[1,2-a]pyridin-3-yl)pyrimidin-2-yl)amino)-5,7-dimethyladamantan-1-ol] | 100 | 87 | 61 | 66 | > 5 | 99 |  |  |  |  |  |  |  |  | 
2 | C[C@]12C[C@]3(C)C[C@](O)(C1)C[C@](Nc1ncc(F)c(-c4cnc5ccc(Nc6cncnc6)cn45)n1)(C2)C3 [Compound 111, (1s,3r,5R,7S)-3-((5-Fluoro-4-(6-(pyrimidin-5-ylamino)imidazo[1,2-a]pyridin-3-yl)pyrimidin-2-yl)amino)-5,7-dimethyladamantan-1-ol] | 89 | 86 | 11 | 20 | 0.108 | 29 |  |  |  |  |  |  |  |  | 
3 | Cc1cnc(N[C@H]2CC[C@H](N)CC2)nc1-c1cnc2ccc(Nc3cncc(C(F)(F)F)c3)cn12 [Compound 65, (1r,4r)-N^1-(5-Methyl-4-(6-((5-(trifluoromethyl)pyridin-3-yl)amino)imidazo[1,2-a]pyridin-3-yl)pyrimidin-2-yl) cyclohexane-1,4-diamine] | 24 | 31 | 12 | 32 | 0.024 |  | 125 |  |  |  |  |  |  |  | 
4 | Cc1cnc(N2CCC3(CCNC3=O)CC2)nc1-c1cnc2ccc(-c3ccccc3)cn12 [Compound 125, 8-(5-Methyl-4-(6-phenylimidazo[1,2-a]pyridin-3-yl)pyrimidin-2-yl)-2,8-diazaspiro[4.5]decan-1-one] | 92 |  |  |  | 2.88 | 100 |  | 4.56 | 3.94 | > 5 |  |  |  |  | 
5 | CNC1CCC(Nc2ncc(C)c(-c3cnc4ccc(Nc5cncnc5)cn34)n2)CC1 (stereo not drawn) [Compound 109, N^1-Methyl-N^4-(5-Methyl-4-(6-(pyrimidin-5-ylamino)imidazo[1,2-a]pyridin-3-yl)pyrimidin-2-yl)cyclohexane-1,4-diamine] |  |  |  |  | 0.008 |  |  | > 10 | 0.18 | 1.26 | 0.21 | 0.94 |  |  | 
6 | N[C@H]1CC[C@H](Nc2ncc(F)c(-c3cnc4ccc(Nc5cccnc5)cn34)n2)CC1 [Compound 49, (1r,4r)-N^1-(5-Fluoro-4-(6-(pyridin-3-ylamino)imidazo [1,2-a]pyridin-3-yl)pyrimidin-2-yl)cyclohexane-1,4-diamine] | 5 | 3 | 0 | 1 | 0.003 | 0 |  |  |  |  |  |  |  |  | 
7 | Cc1cnc(N[C@H]2CC[C@H](N)CC2)nc1-c1cnc2ccc(Oc3cncnc3)cn12 [Compound 75, (1r,4r)-N^1-(5-Methyl-4-(6-(pyrimidin-5-yloxy)imidazo [1,2-a]pyridin-3-yl)pyrimidin-2-yl)cyclohexane-1,4-diamine] | 46 | 50 | 22 | 52 | 0.034 | 41 |  |  |  |  |  |  |  |  | 
8 | Cc1cnc(N[C@H]2CC[C@H](N3CC3)CC2)nc1-c1cnc2cc(Nc3cncnc3)ccn12 [Compound 119, 3-(2-(((1r,4r)-4-(Aziridin-1-yl)cyclohexyl)amino)-5-methylpyrimidin-4-yl)-N-(pyrimidin-5-yl)imidazo[1,2-a] pyridin-7-amine] |  |  |  |  |  |  |  |  | 0.14 | 0.623 | 0.54 | 0.64 | 0.12 | 0.004 | 
9 | Cc1cnc(N[C@H]2CC[C@H](NC(C)C)CC2)nc1-c1cnc2ccc(Nc3cncnc3)cn12 [Compound 121, (1r,4r)-N^1-Isopropyl-N^4-(5-methyl-4-(6-(pyrimidin-5-ylamino)imidazo[1,2-a]pyridin-3-yl)pyrimidin-2-yl) cyclohexane-1,4-diamine] | 47 |  |  |  | 0.032 |  |  | 3.86 | 0.86 | 0.78 |  | 2.21 |  |  | 
10 | Cc1cnc(N[C@H]2CN3CCC2CC3)nc1-c1cnc2ccc(Nc3cncnc3)cn12 [Compound 76, (R)-N-(5-Methyl-4-(6-(pyrimidin-5-ylamino)imidazo [1,2-a]pyridin-3-yl)pyrimidin-2-yl)quinuclidin-3-amine] | 89 | 92 | 59 | 72 | 0.485 | 91 |  |  |  |  |  |  |  |  | 
11 | N[C@H]1CC[C@H](Nc2ncc(Cl)c(-c3cnc4cc(-c5ccccc5)ccn34)n2)CC1 [Compound 77, (1r,4r)-N^1-(5-Chloro-4-(7-phenylimidazo[1,2-a]pyridin-3-yl)pyrimidin-2-yl)cyclohexane-1,4-diamine] | 6 | 3 | 0 | 5 | 0.011 | 5 |  |  |  |  |  |  |  |  | 
12 | Cc1cnc(N[C@H]2CC[C@H](N(CC(N)=O)CC(N)=O)CC2)nc1-c1cnc2ccc(Nc3cncnc3)cn12 [Compound 154, 2,2′-(((1r,4r)-4-((5-Methyl-4-(6-(pyrimidin-5-ylamino)imidazo[1,2-a]pyridin-3-yl)pyrimidin-2-yl)amino)cyclohexyl)azanediyl)diacetamide] |  | 37 | 7 | 14 | 0.022 | 3 |  |  |  |  |  |  |  |  | > 10
13 | Cc1cnc(N[C@H]2CC[C@H](N3CCC3)CC2)nc1-c1cnc2ccc(-c3ccccc3)cn12 [Compound 135, N-((1r,4r)-4-(Azetidin-1-yl)cyclohexyl)-5-methyl-4-(6-phenylimidazo[1,2-a]pyridin-3-yl)pyrimidin-2-amine] |  | 13 | 57 | 61 | 1.14 | 28 |  |  |  |  |  |  |  |  | 0.564 ± 0.047
14 | COCCN[C@H]1CC[C@@H](Nc2ncc(C)c(-c3cnc4ccc(-c5ccccc5)cn34)n2)CC1 [Compound 130, (1s,4s)-N^1-(2-Methoxyethyl)-N^4-(5-methyl-4-(6-phenylimidazo[1,2-a]pyridin-3-yl)pyrimidin-2-yl) cyclohexane-1,4-diamine] |  | 40 | 23 | 25 | 1.12 | 23 |  |  |  |  |  |  |  |  | 0.172 ± 0.001
